According to patent publication US20140128352A1, “COMPOUNDS AND METHODS FOR MODULATING MITOCHONDRIAL METABOLISM AND REACTIVE OXYGEN SPECIES PRODUCTION” (Buck Institute for Research on Aging, priority 2012, published 2014):
Entries after “also recorded” stand apart in the source; their conditions may differ.

Columns and labels:
[1] = test system: mitochondrial respiration; assay: Mitochondrial respiration, Seahorse XF24; assay type: biochemical, rat; details: complex I, complex II or glycerol phosphate substrates; states 2, 3, 4
Protocol: Measurements of ΔΨm described in the previous examples were made under “resting” conditions in which substrates were present but ΔΨm was not coupled to ATP (energy) production by mitochondria. To test the effect of candidate compounds on mitochondrial bioenergetics under energy producing conditions, respiratory coupling parameters were measured in isolated mitochondria in microplate format using a Seahorse XF 24 analyzer (Rogers, G. et al. (2011) High Throughput Microplate Respiratory Measurements Using Minimal Quantities of Isolated Mitochondria. PLoS One. 6(7): e21746). […] ATP synthesis was terminated by injection of oligomycin (0.5 μg/mL) and leak-dependent respiration was measured (state 4o). Finally, the complex III inhibitors antimycin A (2.5 uM) and myxothiazol (2 μM) were injected to terminate respiration. Respiratory profiles were evaluated for signs of inhibition (decreased states 2, 3, or 4o) or uncoupling (increased states 2 or 4o) by candidate compounds. Seahorse XF experiments were performed in a mannitol-sucrose based buffer as described in Rogers et al. 2011. For respiration experiments driven by glycerol phosphate, this buffer was supplemented with CaCl2 to a final free concentration of 250 nM.

site IIIQo = molecular target: T1, site IIIQo (Rattus norvegicus, UniProt P00159+P20788); assay: Retest of IIIQo ROS production (expanded microplate panel); assay type: biochemical
T1 construct: freshly isolated muscle mitochondria were assayed; from tissue; host or cells: rat skeletal muscle mitochondria (Wistar, Harlan Laboratories)
Protocol: (§1) Compounds identified as site-selective hits as well as structural analogs were re-sourced from ChemBridge and dissolved in DMSO as 80 mM stocks. Master Titration Plates were prepared manually by serially diluting 80 mM compound stocks between 0.08 and 80 mM on 96-well microplates. Four compounds were titrated in duplicate on each plate. Additional DMSO controls were interspersed across these plates to serve as local normalization controls during analysis since two-way median polishing was not appropriate. Just prior to use, compounds were diluted 100-fold with standard buffer (10X). The same known inhibitor positive controls were included on each plate as during high-throughput screening. The five core ROS assays and single ΔΨm assay were carried out as in the initial high-throughput screen. In addition, several assays were included to help validate the specificity of the compounds for a given site of production. […] The use of different substrates was designed to reveal compounds that disrupt mitochondrial function in a substrate specific manner. […] Most frequently, these changes involved the use of different substrates to supply electrons from an alternative entry point in the chain. If a site of ROS production is being targeted selectively by a compound, then in many cases the supply of electrons should not influence the effectiveness of this compound at suppressing ROS production. […] The fluorescence values in each well were scaled in relation to the intra-plate DMSO and known inhibitor controls as in the high-throughput screen except that median values for local interspersed DMSO wells (3-6 wells) were used rather than just the 8 DMSO wells in columns 1 and 12. This normalization was applied in place of the two-way median polish used during high-throughput screening to minimize row and column effects. […] At this stage, strong candidates were not necessarily excluded from further testing if subtle off-target effects were observed (e.g. loss of specificity or signs of general inhibition at the highest concentrations). Rather, these candidates were often pursued for more detailed mechanistic studies with the expectation that subsequent structure activity analysis would provide insight into which structurally related compounds would provide the optimal specificity for a given site of production.

site IF = molecular target: T2, site IF (Rattus norvegicus, UniProt Q5XIH3); assay: Retest of IF ROS production (expanded microplate panel); assay type: biochemical
T2 construct: freshly isolated muscle mitochondria were assayed; from tissue; host or cells: rat skeletal muscle mitochondria (Wistar, Harlan Laboratories)
T2 sequence (Q5XIH3 21-464 limits assumed): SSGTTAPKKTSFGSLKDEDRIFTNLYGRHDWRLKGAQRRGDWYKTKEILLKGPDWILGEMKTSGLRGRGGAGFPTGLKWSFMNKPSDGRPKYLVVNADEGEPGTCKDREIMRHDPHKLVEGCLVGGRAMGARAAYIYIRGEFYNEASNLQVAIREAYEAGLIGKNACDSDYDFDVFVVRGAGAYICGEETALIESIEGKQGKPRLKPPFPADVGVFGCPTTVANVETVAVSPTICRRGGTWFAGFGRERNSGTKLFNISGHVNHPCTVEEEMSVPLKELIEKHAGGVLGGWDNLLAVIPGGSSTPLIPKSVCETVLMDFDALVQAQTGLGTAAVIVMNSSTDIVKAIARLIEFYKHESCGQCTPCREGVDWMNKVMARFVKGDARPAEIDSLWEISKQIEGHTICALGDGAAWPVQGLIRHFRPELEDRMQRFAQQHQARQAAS
Protocol: as §1

[2] = test system: mitochondrial membrane potential (ΔΨm); assay: Retest ΔΨm assays (different substrates, with and without nigericin); assay type: biochemical, rat; details: various substrates
Protocol: The five core ROS assays and single ΔΨm assay were carried out as in the initial high-throughput screen. In addition, several assays were included to help validate the specificity of the compounds for a given site of production. […] The use of different substrates was designed to reveal compounds that disrupt mitochondrial function in a substrate specific manner. […] Most frequently, these changes involved the use of different substrates to supply electrons from an alternative entry point in the chain. If a site of ROS production is being targeted selectively by a compound, then in many cases the supply of electrons should not influence the effectiveness of this compound at suppressing ROS production. […] Candidate compounds that remained site-selective following robotics assisted retesting were subsequently tested for effects on ROS production and ΔΨm with a Varian Cary Eclipse fluorimeter (excitation 550 nm, emission at 590 nm). This experimental format allows kinetic measurements of ROS production and ΔΨm with more accurate temperature control, sample stirring, and background correction. […] Conditions were generally as described for the various microplate assays with the following exceptions: HRP was increased to 5 units/mL, Amplex UltraRed was increased to 50 μM, temperature was always 37° C., samples were continuously stirred, and baseline rates of fluorescence change in the absence of substrate were acquired prior to their addition. Example protocols for cuvette based measurement of site IQ and site IIIQo ROS production are described in Affourtit et al., 2012. […] Biochim. Biophys. Acta. 1777(5): 397-403. An additional advantage of the kinetic cuvette based assays was the ability to perform inline additions to monitor the relative effect of a test compound against multiple conditions in the same cuvette. Therefore, the selectivity of a compound for one site of ROS production can be monitored by adding substrates and select known inhibitors in defined sequences to alternately provide and trap electrons at various sites in the chain. […]

| Compound | effect on mitochondrial respiration [1] | effect on IIIQo ROS (site IIIQo) | effect on IF ROS and selectivity for site IF (site IF) | effect on ΔΨm [2] | also measured |
| --- | --- | --- | --- | --- | --- |
| O=[N+]([O-])c1ccc(Oc2ccc(S(=O)(=O)NC3CCCCC3)cc2)cc1 [Compound 4] | did not significantly inhibit or show signs of uncoupling respiration under any conditions except at 80 uM; also recorded: does not inhibit forward electron flow through CI | – | – | – | – |
| O=C(O)C1CCCCC1C(=O)NC1CCCCC1 (stereo not shown) [Compound 19] | inhibits ADP-stimulated respiration with complex I substrates; also recorded: no signs of uncoupling but did reveal a progressive inhibition of state 3 respiration (ATP producing) only with CI substrates | unaffected until the highest concentration tested (80 μM) | selectively lowers ROS production from site IF | – | inhibition at 2.5 µM (site IF; 2.5 μM): 24% |
| COc1cc(CN(CCN(C)C)Cc2ccccc2)cc(OC)c1 [Compound 31] | – | – | improved selectivity toward the IF site in combination with a lowered effect on ΔΨm | – | – |
| Cc1ccc(C)c(CN(CCCN(C)C)CCCN(C)C)c1 [Compound 32] | increases ADP-stimulated respiration specifically with complex I substrates; also recorded: significantly increased state 3 respiration specifically with CI substrates | – | selectively lowers ROS production from site IF; also recorded: further improved selectivity for IF without compromising ΔΨm | without any significant effects on membrane potential | – |
| COc1ccc(Cl)cc1N(Cc1ccccc1)Cc1ccccc1 [Compound 34] | – | selectively lowers ROS production from site IIIQo independent of substrate concentration | – | a consistent increase in ΔΨm was observed independent of both substrate and ΔpH at 8 μM; also recorded: increases ΔΨm at 8 μM but collapses ΔΨm above this concentration | inhibition at 8 µM (site IIIQo; 8 μM, independent of substrate concentration): 60% |
| CC1=CC(C)(C)N(Cc2ccc([N+](=O)[O-])cc2)c2ccccc21 [Compound 37] | did not uncouple state 2 respiration; also recorded: does not show signs of uncoupling state 2 respiration at high concentrations | lowers ROS from site IIIQo independent of substrate concentration | – | – | – |
| O=C(O)CSc1cccc(C(=O)Nc2ccc(Br)cc2)c1 [Compound 47] | – | off-target effect on site IIIQo ROS | – | – | – |
| O=C(O)CCC(=O)Nc1ccc(-c2nc3cc4ccccc4cc3[nH]2)cc1 [Compound 61] | – | – | – | increased off-target effect on ΔΨm in the absence of nigericin | – |
